The values that follow come from ChEMBL document CHEMBL1143656, “A novel series of potent gamma-secretase inhibitors based on a benzobicyclo[4.2.1]nonane core” (Bioorg Med Chem Lett, 2005).

SMILES strings stand for the structures.

The first experiment deals with Mus musculus. The experiment in a line: Concentration of […] beta40 in brain of transgenic APP-YAC mice 4 hr after 100 mg/kg peroral dose. The format is functional. The settings on record: route oral.
`O=S(=O)(NC1C2CCC1Cc1cc(/C=C/CN3CCOCC3)ccc1C2)c1ccc(Cl)s1` (stereo in doubt; form 1) [listing 1 of 2 here] displayed a Brain concentration of 16.7 µM.

For a further experiment, the system named is Mus musculus. The experiment in a line: Concentration of […] beta40 in plasma of transgenic APP-YAC mice 4 hr after 100 mg/kg peroral dose. The format is functional, organism-based. On the set-up: dose 100 mg/kg.
Conditions: not given
Consider `O=S(=O)(NC1C2CCC1Cc1cc(/C=C/CN3CCOCC3)ccc1C2)c1ccc(Cl)s1` (stereo in doubt; form 1) [listing 2 of 2 here], for which the Plasma concentration was above 7.91 µM.

A further experiment relates to Mus musculus. In words: Reduction of […] beta-40 in transgenic APP-YAC mice 4 hr after 100 mg/kg peroral dose. The format is functional. The following applies: route oral.
For the compound `O=S(=O)(NC1C2CCC1Cc1cc(/C=C/CN3CCOCC3)ccc1C2)c1ccc(Cl)s1` (stereo in doubt; form 1) [listing 1 of 2 here], the Reduction came to 50%.

Another experiment deals with Gamma-secretase. The experiment in a line: Inhibitory concentration against Gamma-secretase in whole cell inhibition assay using SH-SY5Y cells.
Conditions: not given
The format is functional, cell-based, Homo sapiens.
For the compound `CCCCCS(=O)(=O)NC1C2CCC1Cc1ccccc1C2` (stereo not given), the IC50 (commonly the concentration needed to halve the response being measured) was above 1000 nM.
The same measure, in the same setting: as for `CN1CCN(C/C=C/c2ccc3c(c2)CC2CCC(C3)C2NS(=O)(=O)c2ccc(Cl)s2)CC1` (stereo not given), the figure is 39 nM; as for `COc1ccc2c(c1)CC1CCC(C2)C1NS(=O)(=O)c1ccc(Cl)s1` (stereo not given), 490 nM.
Same read-out and setting: as for `O=S(=O)(NC1C2CCC1Cc1cc(OCCN3CCCCC3)ccc1C2)c1ccc(Cl)s1` (stereo not given), the figure is 73 nM.
With `O=C(Nc1ccc2c(c1)CC1CCC(C2)C1NS(=O)(=O)c1ccccc1)OCc1ccccc1Cl` (stereo not given), 153 nM corresponded to half-maximal inhibition (IC50).
`O=C(Nc1ccc2c(c1)CC1CCC(C2)C1NS(=O)(=O)c1ccc(Cl)s1)c1ccccn1` (stereo not given) came in with a half-maximal inhibitory concentration (IC50) of 12 nM.
The same measure, in the same setting: as for `O=S(=O)(NC1C2CCC1Cc1cc(OCCN3CCOCC3)ccc1C2)c1ccc(Cl)s1` (stereo not given), the figure is 5 nM; as for `CC(=O)Nc1ccc2c(c1)CC1CCC(C2)C1NS(=O)(=O)c1ccccc1` (stereo not given), above 1000 nM; as for `CC(C)(C)c1ccc(S(=O)(=O)NC2C3CCC2Cc2ccccc2C3)cc1` (stereo not given), above 1000 nM.
On to `CCCCS(=O)(=O)NC1C2CCC1Cc1ccccc1C2` (stereo not given), for which inhibition was half-maximal at 610 nM (IC50).
The same measure, in the same setting: as for `O=S(=O)(NC1C2CCC1Cc1ccccc1C2)c1ccccc1F` (stereo not given), the figure is 239 nM; as for `O=S(=O)(NC1C2CCC1Cc1cc(F)ccc1C2)c1ccc(Cl)s1` (stereo not given), 29 nM; as for `O=C(Nc1ccc2c(c1)CC1CCC(C2)C1NS(=O)(=O)c1ccc(Cl)s1)OCc1ccccc1` (stereo not given), 23 nM.
`O=C(Nc1ccc2c(c1)CC1CCC(C2)C1NS(=O)(=O)c1ccccc1)OCc1ccc(Cl)cc1` (stereo not given) showed an IC50 of 16 nM.
`CC1CCCCN1CCOc1ccc2c(c1)CC1CCC(C2)C1NS(=O)(=O)c1ccc(Cl)s1` (stereo not given) gave an IC50 of 227 nM.
Consider `O=S(=O)(NC1C2CCC1Cc1ccccc1C2)c1ccc(Cl)s1` (stereo not given), for which the IC50 was 62 nM.
`O=S(=O)(NC1C2CCC1Cc1ccccc1C2)c1cc(Cl)c(Cl)s1` (stereo not given) had an IC50 above 1000 nM.
The same measure, in the same setting: the result for `O=S(=O)(NC1C2CCC1Cc1c(Cl)cccc1C2)c1ccc(Cl)s1` (stereo not given) reads 175 nM; that for `O=S(=O)(NC1C2CCC1Cc1ccccc1C2)c1ccc(F)cc1` (stereo not given), 129 nM; that for `O=C(Nc1ccc2c(c1)CC1CCC(C2)C1NS(=O)(=O)c1ccccc1)c1ccccn1` (stereo not given), 75 nM.
For the compound `CC1CCCN1CCOc1ccc2c(c1)CC1CCC(C2)C1NS(=O)(=O)c1ccc(Cl)s1` (stereo not given), the 50% inhibitory concentration (IC50) turned out to be 335 nM.
The same measure, in the same setting: as for `CCCCCC(=O)Nc1ccc2c(c1)CC1CCC(C2)C1NS(=O)(=O)c1ccccc1` (stereo not given), the figure is above 1000 nM; as for `Cc1cccc(S(=O)(=O)NC2C3CCC2Cc2ccccc2C3)c1` (stereo not given), above 1000 nM.
On to `O=C(Nc1ccc2c(c1)CC1CCC(C2)C1NS(=O)(=O)c1ccccc1)OCc1cccc(Cl)c1` (stereo not given), for which the IC50 came out at 412 nM.
`O=C(CCc1ccccc1)Nc1ccc2c(c1)CC1CCC(C2)C1NS(=O)(=O)c1ccccc1` (stereo not given) returned a concentration for half-maximal inhibition (IC50) above 1000 nM.
On to `CCN(CC)CC(=O)Nc1ccc2c(c1)CC1CCC(C2)C1NS(=O)(=O)c1ccc(Cl)s1` (stereo not given), for which the midpoint of inhibition, the IC50, lay at 41 nM.
In the case of `CN(CC(=O)Nc1ccc2c(c1)CC1CCC(C2)C1NS(=O)(=O)c1ccc(Cl)s1)Cc1ccccc1` (stereo not given), the IC50 was 226 nM.
Still for that read-out and setting: the result for `O=[N+]([O-])c1ccc(S(=O)(=O)NC2C3CCC2Cc2ccccc2C3)cc1` (stereo not given) reads above 1000 nM.
On the same count and under the same terms, as for `O=S(=O)(NC1C2CCC1Cc1cc(/C=C/Cn3ccnc3)ccc1C2)c1ccc(Cl)s1` (stereo not given), the figure is 15 nM; as for `O=S(=O)(NC1C2CCC1Cc1cc(OCCN3CCC(O)C3)ccc1C2)c1ccc(Cl)s1` (stereo not given), 209 nM; as for `O=C(CN1CCCCC1)Nc1ccc2c(c1)CC1CCC(C2)C1NS(=O)(=O)c1ccc(Cl)s1` (stereo not given), 6 nM.
Still for that read-out and setting: as for `O=S(=O)(NC1C2CCC1Cc1cc(/C=C/CN3CCCCC3)ccc1C2)c1ccc(Cl)s1` (stereo not given), the figure is 152 nM; as for `O=S(=O)(NC1C2CCC1Cc1ccccc1C2)c1cccc(F)c1` (stereo not given), 324 nM; as for `CCCS(=O)(=O)NC1C2CCC1Cc1ccccc1C2` (stereo not given), 721 nM.
Turning to `O=C(CNCc1ccccc1)Nc1ccc2c(c1)CC1CCC(C2)C1NS(=O)(=O)c1ccc(Cl)s1` (stereo not given), 3490 nM corresponded to half-maximal inhibition (IC50).
Still for that read-out and setting: as for `CN1CCN(CC(=O)Nc2ccc3c(c2)CC2CCC(C3)C2NS(=O)(=O)c2ccc(Cl)s2)CC1` (stereo not given), the figure is 69 nM; as for `O=S(=O)(NC1C2CCC1Cc1ccccc1C2)c1ccccc1` (stereo not given), 190 nM; as for `O=C(Nc1ccc2c(c1)CC1CCC(C2)C1NS(=O)(=O)c1ccccc1)c1ccccc1` (stereo not given), above 1000 nM.
The same measure, in the same setting: the result for `O=S(=O)(NC1C2CCC1Cc1cc(OCCN3CCC(O)CC3)ccc1C2)c1ccc(Cl)s1` (stereo not given) reads 623 nM; that for `O=S(=O)(NC1C2CCC1Cc1cc(O)ccc1C2)c1ccc(Cl)s1` (stereo not given), 269 nM.
Turning to `CC(C)CCCC(=O)Nc1ccc2c(c1)CC1CCC(C2)C1NS(=O)(=O)c1ccccc1` (stereo not given), half-maximal inhibition (IC50) was put at 535 nM.
The same measure, in the same setting: the result for `O=S(=O)(NC1C2CCC1Cc1ccccc1C2)c1ccc(C(F)(F)F)cc1` (stereo not given) reads above 1000 nM; that for `O=S(=O)(NC1C2CCC1Cc1cc(F)ccc1C2)c1ccccc1` (stereo not given), 70 nM.
`CCS(=O)(=O)NC1C2CCC1Cc1ccccc1C2` (stereo not given): the IC50 is above 1000 nM.
Still for that read-out and setting: the result for `O=C(Nc1ccc2c(c1)CC1CCC(C2)C1NS(=O)(=O)c1ccccc1)c1ccncc1` (stereo not given) reads above 1000 nM.
On the same count and under the same terms, the result for `O=S(=O)(NC1C2CCC1Cc1cc(/C=C/CN3CCOCC3)ccc1C2)c1ccc(Cl)s1` (stereo in doubt; form 1) [listing 1 of 2 here] reads 1 nM; that for `Cc1ccc(S(=O)(=O)NC2C3CCC2Cc2ccccc2C3)cc1` (stereo not given), 651 nM; that for `O=C(CN1CCN(c2ccccc2)CC1)Nc1ccc2c(c1)CC1CCC(C2)C1NS(=O)(=O)c1ccc(Cl)s1` (stereo not given), 5 nM.
Turning to `O=S(=O)(NC1C2CCC1Cc1cc(/C=C/CN3CCOCC3)ccc1C2)c1ccc(Cl)s1` (stereo in doubt; form 2), the IC50 turned out to be 315 nM.
The same measure, in the same setting: the result for `O=C(CN1CCCC1)Nc1ccc2c(c1)CC1CCC(C2)C1NS(=O)(=O)c1ccc(Cl)s1` (stereo not given) reads 7 nM.
The compound `O=S(=O)(NC1C2CCC1Cc1c(F)cccc1C2)c1ccc(Cl)s1` (stereo not given) registered an IC50 of 34 nM.
The same measure, in the same setting: as for `O=S(=O)(NC1C2CCC1Cc1ccccc1C2)c1ccc(Cl)cc1` (stereo not given), the figure is 467 nM; as for `O=S(=O)(NC1C2CCC1Cc1cc(/C=C/CN3CCN(c4ccccc4)CC3)ccc1C2)c1ccc(Cl)s1` (stereo not given), 21 nM; as for `O=S(=O)(NC1C2CCC1Cc1ccccc1C2)c1cccs1` (stereo not given), 50 nM.
As to `O=S(=O)(NC1C2CCC1Cc1cc(/C=C/CN3CCOCC3)ccc1C2)c1ccc(Cl)s1` (racemic), the IC50 came out at 5 nM.
Still for that read-out and setting: as for `O=C(Nc1ccc2c(c1)CC1CCC(C2)C1NS(=O)(=O)c1ccccc1)c1cccnc1` (stereo not given), the figure is above 1000 nM; as for `O=S(=O)(NC1C2CCC1Cc1cc(Cl)ccc1C2)c1ccc(Cl)s1` (stereo not given), 146 nM; as for `Nc1ccc2c(c1)CC1CCC(C2)C1NS(=O)(=O)c1ccccc1` (stereo not given), 6000 nM.
`CCc1ccc(S(=O)(=O)NC2C3CCC2Cc2ccccc2C3)cc1` (stereo not given) returned an IC50 above 1000 nM.
The same measure, in the same setting: as for `O=C(CN1CCOCC1)Nc1ccc2c(c1)CC1CCC(C2)C1NS(=O)(=O)c1ccc(Cl)s1` (stereo not given), the figure is 7 nM.
For the compound `O=C(Nc1ccc2c(c1)CC1CCC(C2)C1NS(=O)(=O)c1ccccc1)OCc1ccccc1` (stereo not given), it took 74 nM to reach half-maximal inhibition (IC50).
On the same count and under the same terms, as for `COCC(=O)Nc1ccc2c(c1)CC1CCC(C2)C1NS(=O)(=O)c1ccccc1` (stereo not given), the figure is above 1000 nM.
